Experimental data published in patent publication US20100029620A1, “SUBSTITUTED TRIAZOLINE, TETRAZOLONE AND IMIDAZOLONE DERIVATIVES FOR USE AS A MEDICINE” (JANSSEN PHARMACEUTICA N.V., priority 2004, published 2010).

Tests used:
[1] = biological target: T1, human adrenergic-α2C receptor (Homo sapiens, UniProt P18825); experiment: Radioligand binding experiment for α2C-adrenoceptor ([3H]-raulwolscine competition, CHO cell membranes); details: [3H]raulwolscine 1 nM, membranes of CHO cells transfected with human α2C receptor; for IC50: read-out: pIC50 α2C (converted)
T1 construct: expressed in transfected cells; membrane preparation
T1 sequence (P18825 1-462): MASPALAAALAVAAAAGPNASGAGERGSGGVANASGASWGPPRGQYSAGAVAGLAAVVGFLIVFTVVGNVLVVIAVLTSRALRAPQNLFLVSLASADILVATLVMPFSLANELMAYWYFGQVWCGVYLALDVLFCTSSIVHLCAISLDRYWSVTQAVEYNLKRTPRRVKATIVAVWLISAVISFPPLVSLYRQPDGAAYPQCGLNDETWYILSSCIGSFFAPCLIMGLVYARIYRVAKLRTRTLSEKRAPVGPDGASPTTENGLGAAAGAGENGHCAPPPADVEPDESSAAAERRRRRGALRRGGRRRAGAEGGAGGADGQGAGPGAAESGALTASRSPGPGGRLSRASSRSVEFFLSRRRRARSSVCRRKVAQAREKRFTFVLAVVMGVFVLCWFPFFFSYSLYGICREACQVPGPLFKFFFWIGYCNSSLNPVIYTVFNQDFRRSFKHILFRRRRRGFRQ
Experimental: (§1) The interaction of the compounds of Formula (I) with α2C-adrenoceptor receptors was assessed in in vitro radioligand binding experiments. In general, a low concentration of a radioligand with a high binding affinity for a particular receptor or transporter is incubated with a sample of a tissue preparation enriched in a particular receptor or transporter or with a preparation of cells expressing cloned human receptors in a buffered medium. During the incubation, the radioligand binds to the receptor or transporter. When equilibrium of binding is reached, the receptor bound radioactivity is separated from the non-bound radioactivity, and the receptor- or transporter-bound activity is counted. The interaction of the test compounds with the receptor is assessed in competition binding experiments. Various concentrations of the test compound are added to the incubation mixture containing the receptor- or transporter preparation and the radioligand. The test compound in proportion to its binding affinity and its concentration inhibits binding of the radioligand. The radioligand used for […] receptor binding was [^3H]-raulwolscine.
(§2) CHO cells, stabile transfected with human adrenergic-α2A-, -α2B or α2C receptor cDNA, were cultured in Dulbecco's Modified Eagle's Medium (DMEM)/Nutrient mixture Ham's F12 (ratio 1:1)(Gibco, Gent-Belgium) supplemented with 10% heat inactivated fetal calf serum (Life Technologies, Merelbeke-Belgium) and antibiotics (100 IU/ml penicillin G, 100 μg/ml streptomycin sulphate, 110 μg/ml pyruvic acid and 100 μg/ml L-glutamine). One day before collection, cells were induced with 5 mM sodiumbutyrate. Upon 80-90% of confluence, cells were scraped in phosphate buffered saline without Ca^2+ and Mg^2+ and collected by centrifugation at 1500×g for 10 min. The cells were homogenised in Tris-HCl 50 mM using an Ultraturrax homogenizer and centrifuged for 10 min at 23,500×g. The pellet was washed once by resuspension and rehomogenization and the final pellet was resuspended in Tris-HCl, divided in 1 ml aliquots and stored at −70° C.
(§3) Membranes were thawed and re-homogenized in incubation buffer (glycylglycine 25 mM, pH 8.0). In a total volume of 500 μl, 2-10 μg protein was incubated with [^3H]raulwolscine (NET-722) (New England Nuclear, USA) (1 nM final concentration) with or without competitor for 60 min at 25° C. followed by rapid filtration over GF/B filter using a Filtermate196 harvester (Packard, Meriden, Conn.). Filters were rinsed extensively with ice-cold rinsing buffer (Tris-HCl 50 mM pH 7.4). Filter-bound radioactivity was determined by scintillation counting in a Topcount (Packard, Meriden, CT) and results were expressed as counts per minute (cpm). Non-specific binding was determined in the presence of 1 μM oxymetazoline for hα2A- and hα2B receptors and 1 μM spiroxatrine for hα2C receptors.
(§4) Data from assays in the presence of compound were calculated as a percentage of total binding measured in the absence of test compound. Inhibition curves, plotting percent of total binding versus the log value of the concentration of the test compound, were automatically generated, and sigmoidal inhibition curves were fitted using non-linear regression. The pIC50 values of test compounds were derived from individual curves.

[2] = biological target: T2, human adrenergic-α2A receptor (Homo sapiens, UniProt P08913); experiment: Radioligand binding experiment for α2A-adrenoceptor ([3H]-raulwolscine competition, CHO cell membranes); details: [3H]raulwolscine 1 nM, membranes of CHO cells transfected with human α2A receptor; read-out: pIC50 α2A (converted)
T2 construct: expressed in transfected cells; membrane preparation
T2 sequence (P08913 1-465): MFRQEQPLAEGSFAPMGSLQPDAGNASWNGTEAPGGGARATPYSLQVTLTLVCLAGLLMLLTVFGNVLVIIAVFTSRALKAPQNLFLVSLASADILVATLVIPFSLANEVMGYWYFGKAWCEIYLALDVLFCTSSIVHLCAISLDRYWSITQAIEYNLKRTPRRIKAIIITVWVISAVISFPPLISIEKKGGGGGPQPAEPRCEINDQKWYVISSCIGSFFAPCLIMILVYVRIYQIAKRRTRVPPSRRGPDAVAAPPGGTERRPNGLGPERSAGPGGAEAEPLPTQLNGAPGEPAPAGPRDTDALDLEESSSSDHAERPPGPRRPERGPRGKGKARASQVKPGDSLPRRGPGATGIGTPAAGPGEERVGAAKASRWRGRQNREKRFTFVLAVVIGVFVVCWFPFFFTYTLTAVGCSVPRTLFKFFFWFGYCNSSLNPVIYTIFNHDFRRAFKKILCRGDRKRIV
Experimental: as §1, §2, §3, §4

[3] = biological target: T3, human adrenergic-α2B receptor (Homo sapiens, UniProt P18089); experiment: Radioligand binding experiment for α2B-adrenoceptor ([3H]-raulwolscine competition, CHO cell membranes); details: [3H]raulwolscine 1 nM, membranes of CHO cells transfected with human α2B receptor; for IC50: read-out: pIC50 α2B (converted)
T3 construct: expressed in transfected cells; membrane preparation
T3 sequence (P18089 1-450): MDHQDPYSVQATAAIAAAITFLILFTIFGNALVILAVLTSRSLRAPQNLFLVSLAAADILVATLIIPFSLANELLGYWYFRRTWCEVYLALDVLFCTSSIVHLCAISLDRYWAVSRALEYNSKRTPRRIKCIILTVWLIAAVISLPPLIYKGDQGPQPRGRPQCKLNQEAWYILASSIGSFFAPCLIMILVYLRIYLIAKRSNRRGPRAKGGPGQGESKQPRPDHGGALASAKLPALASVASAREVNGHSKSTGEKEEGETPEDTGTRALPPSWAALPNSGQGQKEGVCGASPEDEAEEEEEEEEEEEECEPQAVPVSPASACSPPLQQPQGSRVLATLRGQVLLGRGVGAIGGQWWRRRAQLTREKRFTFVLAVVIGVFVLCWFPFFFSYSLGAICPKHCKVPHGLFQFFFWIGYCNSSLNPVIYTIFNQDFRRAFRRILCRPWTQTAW
Experimental: as §1, §2, §3, §4

| IC50 [1] [nM] | IC50 [2] [nM] | pIC50 α2B [3] | IC50 [3] [nM] | pIC50 α2C [1] | SMILES |
| --- | --- | --- | --- | --- | --- |
| 5.01 | 251 | 6.6 |  |  | O=c1n(-c2ccc(CN3CCOCC3)cc2)cnn1CCNCCOc1ccccc1 [compound 24] |
| 1.58 | 158 |  | 39.8 |  | O=c1n(-c2ccc(CN3CCOCC3)cc2)cnn1CC1CCN(CCOc2ccccc2)CC1 [compound 73] |
| 3.98 | 100 |  | 100 |  | O=c1n(-c2ccc(N3CCC(N4CCCC4)CC3)cc2)cnn1CCNCCOc1ccccc1 [compound 20] |
| 5.01 | 100 |  | 3.98 |  | CC(C)N1CCN(c2ccc(-n3cnn(CC4CCN(CCOc5ccccc5)CC4)c3=O)cc2)CC1 [compound 53] |
| 1.26 | 50.1 |  | 126 |  | O=c1n(-c2ccc(CNCC3CCCO3)cc2)cnn1CCNCCOc1ccccc1 (stereo not drawn) [compound 93] |
| 2 | 50.1 |  | 251 |  | O=c1n(-c2ccc3c(c2)CCNC3)cnn1CCNCCOc1ccccc1 [compound 97] |
| 1.26 | 63.1 |  | 10 |  | CN1CCCN(Cc2ccc(-n3cnn(CC4CCN(CCOc5ccccc5)CC4)c3=O)cc2)CC1 [compound 61] |
| 20 | 501 |  | 398 |  | O=c1n(CCNCCOc2ccccc2)nnn1-c1ccc(CN2CCC(O)CC2)cc1 [compound 107] |
| 10 | 63.1 |  | 7.94 |  | C/C(=C\c1ccccc1)CN1CCC(Cn2ncn(-c3ccc(NCCN(C)C)cc3)c2=O)CC1 [compound 39] |
| 25.1 | 501 |  | 794 |  | CC(C)N1CCc2cc(-n3cnn(CCNCCOc4ccccc4)c3=O)ccc2C1 [compound 103] |
| 3.98 | 63.1 |  | 6.31 |  | CN1CCN(CCCNc2ccc(-n3cnn(CC4CCN(CCOc5ccccc5)CC4)c3=O)cc2)CC1 [compound 49] |
| 1 | 25.1 |  | 79.4 |  | O=c1n(-c2ccc(CN3CCc4ccccc4C3)cc2)cnn1CCNCCOc1ccccc1 [compound 27] |
| 0.794 | 3.98 |  | 0.631 |  | CN(C)CCNc1ccc(-n2cnn(CCC3CCN(CCOc4ccccc4)CC3)c2=O)cc1 [compound 40] |
| 2 | 39.8 |  | 5.01 |  | CN1CCCN(c2ccc(-n3cnn(CC4CCN(CCOc5ccccc5)CC4)c3=O)cc2)CC1 [compound 60] |
| 10 | 631 |  | 398 |  | CC(=O)N1CCc2cc(-n3cnn(CCNCCOc4ccccc4)c3=O)ccc2C1 [compound 100] |
| 15.8 | 15.8 |  | 63.1 |  | C/C(=C\c1ccccc1)CN1CCC(n2cnn(-c3ccc(CN)cc3)c2=O)CC1 [compound 33] |

| IC50 [1] [nM] | IC50 [2] [nM] | pIC50 α2B [3] | IC50 [3] [nM] | pIC50 α2C [1] | SMILES |
| --- | --- | --- | --- | --- | --- |
| 5.01 | 25.1 |  | 200 |  | O=c1n(-c2ccc(CNCc3ccccc3)cc2)cnn1CCNCCOc1ccccc1 [compound 92] |
| 2.51 | 39.8 |  | 7.94 |  | O=c1n(-c2ccc(CN3CCC(N4CCCC4)CC3)cc2)cnn1CC1CCN(CCOc2ccccc2)CC1 [compound 68] |
| 1.58 | 25.1 |  | 6.31 |  | CN(CCNc1ccc(-n2cnn(CC3CCN(CCOc4ccccc4)CC3)c2=O)cc1)Cc1ccccc1 [compound 43] |
| 3.16 | 158 |  | 251 |  | O=c1n(-c2ccc(CN3CCOCC3)cc2)cnn1CCNCCOc1ccccc1 [compound 23] |
| 1 | 50.1 |  | 79.4 |  | O=c1n(-c2ccc(CN3CCCC3)cc2)cnn1CCNCCOc1ccccc1 [compound 14] |
| 5.01 | 63.1 |  | 79.4 |  | O=c1n(CC2CCN(CCOc3ccccc3)CC2)nnn1-c1ccc(CN2CCOCC2)cc1 [compound 104] |
| 12.6 | 251 |  | 15.8 |  | O=c1n(-c2ccc(NCCN3CCOCC3)cc2)cnn1CC1CCN(CCOc2ccccc2)CC1 [compound 50] |
|  | 126 |  | 200 | 8.4 | C/C(=C\c1ccccc1)CN1CCC(n2cnn(CCNCCOc3ccccc3)c2=O)CC1 [compound 28] |
| 7.94 | 631 |  | 251 |  | CS(=O)(=O)N1CCc2cc(-n3cnn(CCNCCOc4ccccc4)c3=O)ccc2C1 [compound 101] |
| 0.631 | 50.1 |  | 12.6 |  | O=c1n(-c2ccc(CN3CCCCC3)cc2)cnn1CC1CCN(CCOc2ccccc2)CC1 [compound 64] |
| 1.26 | 31.6 | 7.5 |  |  | CN(C)CCNc1ccc(-n2cnn(CCNCCOc3ccccc3)c2=O)cc1 [compound 87] |
| 6.31 | 126 |  | 126 |  | NCc1ccc(Cn2cnn(CCNCCOc3ccccc3)c2=O)cc1 [compound 85] |
| 3.98 | 39.8 |  | 25.1 |  | NCc1ccc(Cn2cnn(C3CCN(CCOc4ccccc4)CC3)c2=O)cc1 [compound 37] |
| 6.31 | 2510 |  | 200 |  | CC(NCCOc1ccccc1)C(C)n1ncn(-c2ccc(N3CCN(c4ccc(O)cc4)CC3)cc2)c1=O (single isomer, unassigned) [compound 4] |
| 1.58 | 6.31 |  | 1.26 |  | C/C(=C\c1ccccc1)CN1CCC(CCn2ncn(-c3ccc(NCCN(C)C)cc3)c2=O)CC1 [compound 41] |
| 10 | 158 |  | 1580 |  | O=c1n(CCN2CCCCC2)cnn1CCNCCOc1ccccc1 [compound 16] |
